Test results published in patent US8802638B1, “Flavonoid treatment of glycogen synthase kinase-based disease” (University of South Florida, priority 2007, dated 2014).

Tests used:
[1] = diosmetin formed from diosmin by intestinal flora; cited from earlier work
PS1 = experiment: Western blot of PS1 C-terminal fragment phosphorylation in SweAPP N2a cells; type: cell-based, murine
Protocol: (§1) Cultured cells or mouse brain were lysed in ice-cold lysis buffer described above, and an aliquot corresponding to 50 μg of total protein was electrophoretically separated using 12% Tris-HCl or 16.5% Tris-tricine gels. Electrophoresed proteins were then transferred to PVDF membranes, washed in dH2O, and blocked for 1 hr at ambient temperature in Tris-buffered saline (TBS; Bio-Rad) containing 5% (w/v) non-fat dry milk. After blocking, membranes were hybridized for 1 hr at ambient temperature with various primary antibodies. Membranes were then washed 3× for 5 min each in dH2O and incubated for 1 hr at ambient temperature with the appropriate HRP-conjugated secondary antibody (1:1,000). All antibodies were diluted in TBS containing 5% (w/v) of non-fat dry milk. Blots were developed using the luminol reagent (Pierce Biotechnology). Densitometric analysis was done as previously described using a FluorS Multiimager with Quantity One™ software. Immunoprecipitation was performed for detection of sAPP-α, sAPP-β and Aβ by incubating 200 μg of total protein of each sample with various sequential combinations of 6E10 (1:100) and/or 22C11 (1:100) antibodies overnight with gentle rocking at 4° C., and 10 μL of 50% protein A-Sepharose beads were then added to the sample (1:10; Sigma) prior to gentle rocking for an additional 4 hrs at 4° C. Following washes with 1× cell lysis buffer, samples were subjected to Western blot as described above. Antibodies used for Western blot included the APP-carboxyl-terminal antibody (1:50)), amino-terminal APP antibody (clone 22C11), or 6E10 (1:1,000), or actin antibody (1:1,500; as an internal reference control). γ-secretase activity was quantified in cell lysates using available kits (R&D Systems, Minneapolis, Minn.), based on secretase-specific peptides conjugated to fluorogenic reporter molecules.
The two bands of highest molecular weight, approximately 20 kD and 18 kD in size, represent phosphorylated PS1 CTFs with a smaller 16 kD band representing the more common CTF product indicative of PS1 endoproteolytic cleavage.
To confirm that the 20 kD and 18 kD bands were phosphorylated PS1 isoforms, SweAPP N2a cells were treated with luteolin (20 μM) prior to lysis and cell lysates incubated with calf intestine alkaline phosphatase (CIAP) (Fermentas, Hanover, Md.), to dephosphorylate any potential phosphorylated proteins, to eliminate skewing of electrophorectic mobilities. Following 30 minutes of incubation, the 20 kD band is not evident in the CIAP treated lysates, seen in FIGS. 21(A) through 22, and the 18 kD band reduced while endogenous CTF, 16 kD, appears to accumulate. When compared to lysates incubated with only reaction buffer, phosphorylated residues decrease in a time dependent manner, shown by the 20 kD CTF:16 kD CTF. […] Luteolin affects PS1 phosphorylation and may indicate a means by which γ-secretase activity may be regulated.
To determine if this phenomenon was specifically attributable to luteolin treatment or more generally in regards to GSK-3 inhibition, SweAPP N2a cells were treated with a range of doses of the GSK-3 inhibitor SB-415286 (BIOMOL®, Plymouth Meeting, Pa.). […] FIG. 24(B). GSK-3α and β was successfully knocked-down (>70%, data not shown) with siRNA in SweAPP N2a cells, substantiating the role of GSK-3α in this luteolin-mediated PS1 processing. […]

γ-secretase = biological target: T1, γ-secretase (Mus musculus, UniProt P49769); experiment: fluorometric assay for γ-secretase cleavage activity in SweAPP N2a cell lysates; type: cell-based, murine; conditions: relative to untreated control
T1 construct: endogenous in cells; host or cells: SweAPP N2a cells (lysates of treated cells)
Protocol: Cultured cells or mouse brain were lysed in ice-cold lysis buffer described above, and an aliquot corresponding to 50 μg of total protein was electrophoretically separated using 12% Tris-HCl or 16.5% Tris-tricine gels. Electrophoresed proteins were then transferred to PVDF membranes, washed in dH2O, and blocked for 1 hr at ambient temperature in Tris-buffered saline (TBS; Bio-Rad) containing 5% (w/v) non-fat dry milk. After blocking, membranes were hybridized for 1 hr at ambient temperature with various primary antibodies. Membranes were then washed 3× for 5 min each in dH2O and incubated for 1 hr at ambient temperature with the appropriate HRP-conjugated secondary antibody (1:1,000). Antibodies were obtained against the amino-terminus and carboxyl-terminus of PS1 (Chemicon, Temecula, Calif.), amino-terminus and carboxyl-terminus of APP (22C11), actin (Roche, Basel, Switzerland), Aβ (6E10, 48G) (Signet Laboratories, Dedham, Mass.), phosphor-GSK3α (ser^21, clone BK202) (Upstate, Lake Placid, N.Y.), phospho-GSK3α/β (pTyr^279/216) (Sigma), phospho-GSK-3β (Ser^9) (Sigma) and total GSK-3α/β (Sigma). […] Densitometric analysis was done as previously described using a FluorS Multiimager with Quantity One™ software (39). […] Antibodies used for Western blot included the APP-carboxyl-terminal antibody (1:50)), amino-terminal APP antibody (clone 22C11), or 6E10 (1:1,000), or actin antibody (1:1,500; as an internal reference control). γ-secretase activity was quantified in cell lysates using available kits based on secretase-specific peptides conjugated to fluorogenic reporter molecules.
Due to the implications on γ-secretase activity, luteolin's effect on SweAPP N2a cells was analyzed using a fluorometric assay for γ-cleavage.
Cultured cells or mouse brain were lysed in ice-cold lysis buffer described above, and an aliquot corresponding to 50 μg of total protein was electrophoretically separated using 12% Tris-HCl or 16.5% Tris-tricine gels. […] Densitometric analysis was done as previously described using a FluorS Multiimager with Quantity One™ software. […]

GSK-3α/β = experiment: Western blot of phosphorylated GSK-3α/β forms in SweAPP N2a cells; type: cell-based, murine; conditions: SweAPP N2a cells co-treated with luteolin or SB-415286 and GF109203X; data not shown
Protocol: Cultured cells or mouse brain were lysed in ice-cold lysis buffer described above, and an aliquot corresponding to 50 μg of total protein was electrophoretically separated using 12% Tris-HCl or 16.5% Tris-tricine gels. Electrophoresed proteins were then transferred to PVDF membranes, washed in dH2O, and blocked for 1 hr at ambient temperature in Tris-buffered saline (TBS; Bio-Rad) containing 5% (w/v) non-fat dry milk. After blocking, membranes were hybridized for 1 hr at ambient temperature with various primary antibodies. Membranes were then washed 3× for 5 min each in dH2O and incubated for 1 hr at ambient temperature with the appropriate HRP-conjugated secondary antibody (1:1,000). Antibodies were obtained against the amino-terminus and carboxyl-terminus of PS1 (Chemicon, Temecula, Calif.), amino-terminus and carboxyl-terminus of APP (22C11), actin (Roche, Basel, Switzerland), Aβ (6E10, 48G) (Signet Laboratories, Dedham, Mass.), phosphor-GSK3α (ser^21, clone BK202) (Upstate, Lake Placid, N.Y.), phospho-GSK3α/β (pTyr^279/216) (Sigma), phospho-GSK-3β (Ser^9) (Sigma) and total GSK-3α/β (Sigma). All antibodies were diluted in TBS containing 5% (w/v) of non-fat dry milk. Blots were developed using the luminol reagent (Pierce Biotechnology). Densitometric analysis was done as previously described using a FluorS Multiimager with Quantity One™ software (39). […] Antibodies used for Western blot included the APP-carboxyl-terminal antibody (1:50)), amino-terminal APP antibody (clone 22C11), or 6E10 (1:1,000), or actin antibody (1:1,500; as an internal reference control). γ-secretase activity was quantified in cell lysates using available kits based on secretase-specific peptides conjugated to fluorogenic reporter molecules.
The effect luteolin had on a variety of proteins related to and/or required for proper functioning of the γ-secretase complex was evaluated to establish the mechanism whereby luteolin modulates γ-secretase activity and subsequent Aβ generation. […]

SweAPP N2a cells = experiment: APP proteolysis (Aβ ELISA, IP, APP CTF Western blot) in SweAPP N2a cells; type: cell-based, murine; conditions: result in words; ELISA/IP/Western blot
Protocol: Cultured cells or mouse brain were lysed in ice-cold lysis buffer described above, and an aliquot corresponding to 50 μg of total protein was electrophoretically separated using 12% Tris-HCl or 16.5% Tris-tricine gels. Electrophoresed proteins were then transferred to PVDF membranes, washed in dH2O, and blocked for 1 hr at ambient temperature in Tris-buffered saline (TBS; Bio-Rad) containing 5% (w/v) non-fat dry milk. After blocking, membranes were hybridized for 1 hr at ambient temperature with various primary antibodies. Membranes were then washed 3× for 5 min each in dH2O and incubated for 1 hr at ambient temperature with the appropriate HRP-conjugated secondary antibody (1:1,000). Antibodies were obtained against the amino-terminus and carboxyl-terminus of PS1 (Chemicon, Temecula, Calif.), amino-terminus and carboxyl-terminus of APP (22C11), actin (Roche, Basel, Switzerland), Aβ (6E10, 48G) (Signet Laboratories, Dedham, Mass.), phosphor-GSK3α (ser^21, clone BK202) (Upstate, Lake Placid, N.Y.), phospho-GSK3α/β (pTyr^279/216) (Sigma), phospho-GSK-3β (Ser^9) (Sigma) and total GSK-3α/β (Sigma). All antibodies were diluted in TBS containing 5% (w/v) of non-fat dry milk. Blots were developed using the luminol reagent (Pierce Biotechnology). Densitometric analysis was done as previously described using a FluorS Multiimager with Quantity One™ software (39). Immunoprecipitation was performed for detection of sAPP-α, sAPP-β and Aβ by incubating 200 μg of total protein of each sample with various sequential combinations of 6E10 (1:100) and/or 22C11 (1:100) antibodies overnight with gentle rocking at 4° C., and 10 μL of 50% protein A-Sepharose beads were then added to the sample (1:10; Sigma) prior to gentle rocking for an additional 4 hrs at 4° C. Following washes with 1× cell lysis buffer, samples were subjected to Western blot as described above. Antibodies used for Western blot included the APP-carboxyl-terminal antibody (1:50)), amino-terminal APP antibody (clone 22C11), or 6E10 (1:1,000), or actin antibody (1:1,500; as an internal reference control). γ-secretase activity was quantified in cell lysates using available kits based on secretase-specific peptides conjugated to fluorogenic reporter molecules.
SweAPP N2a cells and primary neuronal cells derived from Tg2576 mice were treated with varying doses of luteolin to examine luteolin's effect on APP proteolysis. Cellular extracts were collected and analyzed using immunoprecipitation (IP), Western blot, and ELISA. […] See FIGS. 1 through 2(B) and 5 through 6(B). SweAPP N2a and primary Tg2576-derived neuronal cells CTF profiles were analyzed following luteolin treatment to determine at which level luteolin impacts amyloid processing.

Tg2576 mice = conditions: 0.05% diosmin diet for 6 months
TACE, ADAM10, sAPPα = experiment: non-amyloidogenic APP processing (TACE, ADAM10 maturation, sAPPα release); type: cell-based; conditions: data not shown
Text: The presence of phosphorylated PS1 CTFs corresponds with reduction of Aβ generation and accumulation of the β-CTF of APP, as was observed following luteolin treatment. The accumulation β-CTFs following luteolin treatment is a fraction of β-CTF seen after direct γ-secretase inhibitor treatment (data not shown). In view of this finding, selective GSK-3 inactivation is a less toxic, more regulative, substrate-specific mode of γ-secretase inhibition. Earlier studies routinely employed phorbol-12,13-dibutyrate (PDBu), a potent PKC activator, as their phosphorylating agent. Thus, luteolin was tested for similar PKC activation, rather than a GSK-3 inhibitor. […] Additionally, there are no indications GSK-3α inhibition affects non-amyloidogenic processing of APP, since luteolin, SB-415286, and GSK-3α RNAi treatment have no effect on the maturation of TACE, ADAM10, or sAPPα release (data not shown), which are all strongly associated with PKC activation.

PS1-APP association = experiment: PS1-APP association, immunoprecipitation/Western blot in SweAPP N2a cells; type: cell-based, murine; conditions: 20 μM for 4 hrs or siRNA transfection
Protocol: as §1
Cell lysates of luteolin-treated SweAPP N2a cells were immunoprecipitated by PS1 antibody and probed for APP to clarify how phospho-PS1 CTF isoforms may regulate γ-secretase activity, seen in FIGS. 26(A) through 27(B). As illustrated in FIGS. 26(A) and (B), the APP-PS1 association is disrupted by luteolin, SB-415286 treatment, and GSK-3α siRNA. […] Thus, GSK-3α or, more specifically, downstream phosphorylation of the PS1 CTF plays an essential role in regulating the association of γ-secretase complex with its APP substrate.

| γ-secretase cleavage activity (γ-secretase) | SMILES | PS1 CTF phosphorylation (phospho-PS1 CTF to PS1 CTF ratio) (PS1) | Aβ1-40, 42 production (SweAPP N2a cells) | other results |
| --- | --- | --- | --- | --- |
| just as efficacious as luteolin | COc1ccc(-c2cc(=O)c3c(O)cc(O)cc3o2)cc1O [diosmetin] | just as efficacious as luteolin |  | plasma half-life [1]: > 26 h |
|  | CN(C)CCCn1cc(C2=C(c3c[nH]c4ccccc34)C(=O)NC2=O)c2ccccc21 [GF109203X, reference compound] | Minor decreases in 20 kD and 18 kD phospho-PS1 CTF isoforms |  | GSK-3 inhibition on co-treatment with PKC inhibitor (GSK-3α/β): no effect on GSK-3 inhibition |
| results were not similar to luteolin | O=c1cc(-c2ccc(O)cc2)oc2cc(O)cc(O)c12 [apigenin, reference compound] |  | did not reduce Aβ1-40, 42 production to the same level as luteolin, diosmetin, and diosmin |  |
|  | COc1ccc(-c2cc(=O)c3c(O)cc(O[C@@H]4O[C@H](CO[C@@H]5O[C@@H](C)[C@H](O)[C@@H](O)[C@H]5O)[C@@H](O)[C@H](O)[C@H]4O)cc3o2)cc1O [diosmin] |  |  | Aβ plaque burden (4G8 stained sections, image analysis) (Tg2576 mice): significantly reduced throughout the brain |
|  | O=C1NC(=O)C(c2ccccc2[N+](=O)[O-])=C1Nc1ccc(O)c(Cl)c1 [SB-415286, reference compound] | Alterations in phospho-PS1 CTF:PS1 CTF ratios were similar to prior experiments | congruent decreases in Aβ1-40, 42 generation | maturation of TACE, ADAM10, or sAPPα release (TACE, ADAM10, sAPPα): no effect; ratio of APP to actin (full-length APP levels) (PS1-APP association; 6E10 Western blot of lysates): no significant changes; APP-PS1 association (PS1-APP association; IP with anti-PS1 CTF, 6E10 blot): disrupted |
